The values that follow come from ChEMBL document CHEMBL1201862, “PubChem BioAssay data set” (2004).

Calls of active or inactive are those of the source.

In test [1] the target is Induced myeloid leukemia cell differentiation protein Mcl-1 (Homo sapiens, UniProt Q07820). In kind it is functional.
A short description of test [2]: human group III sPLA2 inhibitors, dose response, biochemical, QFRET, IC50 (AID 743457).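 Further: green fluorescence rise as the enzyme cleaves BODIPY PC-A2 in liposomes; potency for inhibition of the enzyme.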
The target of test [3] is T1, Tyrosine-protein phosphatase non-receptor type 7 (Homo sapiens, UniProt P35236).
T1 sequence (P35236 whole entry): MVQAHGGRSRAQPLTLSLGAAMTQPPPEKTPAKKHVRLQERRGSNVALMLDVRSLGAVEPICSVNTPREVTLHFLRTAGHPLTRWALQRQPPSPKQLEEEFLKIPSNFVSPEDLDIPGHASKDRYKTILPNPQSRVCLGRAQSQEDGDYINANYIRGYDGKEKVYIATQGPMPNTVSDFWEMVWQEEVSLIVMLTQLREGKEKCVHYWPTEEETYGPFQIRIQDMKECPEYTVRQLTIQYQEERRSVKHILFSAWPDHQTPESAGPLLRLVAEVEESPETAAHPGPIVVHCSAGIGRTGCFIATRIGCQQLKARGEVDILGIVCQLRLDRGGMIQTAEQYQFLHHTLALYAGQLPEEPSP
Description: inhibitors of human HePTP phosphatase, […], biochemical, absorbance, leukemia target (AID 521). The format is functional.

Test [4] has as its target T2, Heat shock factor protein 1 (Mus musculus, UniProt P38532).
T2 sequence (P38532 whole entry): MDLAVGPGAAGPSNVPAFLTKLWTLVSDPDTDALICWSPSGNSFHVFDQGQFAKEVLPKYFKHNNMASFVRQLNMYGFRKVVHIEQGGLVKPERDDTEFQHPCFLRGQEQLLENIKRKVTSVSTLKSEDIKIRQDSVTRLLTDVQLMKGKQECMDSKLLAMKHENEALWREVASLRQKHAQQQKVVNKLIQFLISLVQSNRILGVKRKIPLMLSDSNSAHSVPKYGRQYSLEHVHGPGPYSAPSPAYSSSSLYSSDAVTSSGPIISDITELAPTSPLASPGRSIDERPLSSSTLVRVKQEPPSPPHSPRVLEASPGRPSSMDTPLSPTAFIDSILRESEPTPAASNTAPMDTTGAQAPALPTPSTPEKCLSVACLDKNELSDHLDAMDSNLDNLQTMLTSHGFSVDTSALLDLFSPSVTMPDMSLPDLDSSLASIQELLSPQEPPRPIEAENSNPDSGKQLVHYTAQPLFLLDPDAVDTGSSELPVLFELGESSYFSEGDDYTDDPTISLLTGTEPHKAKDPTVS
Description: inhibition of MG132-induced HSE-luciferase signal, confirmation, cell-based, NIH3T3, luminescence, dose retest (AID 2382).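 Further: NIH3T3 fibroblasts with HSF1-driven luciferase reporter stressed by proteasome inhibitor MG132; luminescence from HSF1-driven luciferase expression after 8 hours of MG132 stress.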 The format is functional.

Test [5] in a line: inhibitors of HIV Env-driven cell fusion, dose response, cherry-pick (AID 652057). In kind it is functional, cell-based.
Test [6] in a line: ZM109 Env clade C HIV-1 fusion inhibitors, dose response, HeLa effector, CEM target cells, luciferase, cherry-pick (AID 652058). The format is functional, cell-based.
Test [7] can be described thus: off-target signal loss in HeLa-CEM21 co-culture – HeLa F-luc CTL cells, cherry-picked, counter-screen for HIV-1 Env fusion inhibitor project, dose response (AID 652040).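 Further: potency for signal decrease marking cytotoxic or nonspecific inhibition.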 In kind it is functional, cell-based.
A short description of test [8]: inhibitors of clade B AD8 Env fusion, dose response, cell-based, cherry-pick (AID 652062).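 Further: luciferase signal from cell-cell fusion driven by HIV-1 clade B AD8 Env; potency is for inhibitors of fusion seen as a drop in luminescence.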 In kind it is functional.
The nature of test [9]: microbe, parasite or virus in culture. The format is functional. As to conditions: Mycobacterium tuberculosis.
For test [10], the target named is T3, Short transient receptor potential channel 4 (Mus musculus, UniProt Q9QUQ5).
T3 sequence (Q9QUQ5 whole entry): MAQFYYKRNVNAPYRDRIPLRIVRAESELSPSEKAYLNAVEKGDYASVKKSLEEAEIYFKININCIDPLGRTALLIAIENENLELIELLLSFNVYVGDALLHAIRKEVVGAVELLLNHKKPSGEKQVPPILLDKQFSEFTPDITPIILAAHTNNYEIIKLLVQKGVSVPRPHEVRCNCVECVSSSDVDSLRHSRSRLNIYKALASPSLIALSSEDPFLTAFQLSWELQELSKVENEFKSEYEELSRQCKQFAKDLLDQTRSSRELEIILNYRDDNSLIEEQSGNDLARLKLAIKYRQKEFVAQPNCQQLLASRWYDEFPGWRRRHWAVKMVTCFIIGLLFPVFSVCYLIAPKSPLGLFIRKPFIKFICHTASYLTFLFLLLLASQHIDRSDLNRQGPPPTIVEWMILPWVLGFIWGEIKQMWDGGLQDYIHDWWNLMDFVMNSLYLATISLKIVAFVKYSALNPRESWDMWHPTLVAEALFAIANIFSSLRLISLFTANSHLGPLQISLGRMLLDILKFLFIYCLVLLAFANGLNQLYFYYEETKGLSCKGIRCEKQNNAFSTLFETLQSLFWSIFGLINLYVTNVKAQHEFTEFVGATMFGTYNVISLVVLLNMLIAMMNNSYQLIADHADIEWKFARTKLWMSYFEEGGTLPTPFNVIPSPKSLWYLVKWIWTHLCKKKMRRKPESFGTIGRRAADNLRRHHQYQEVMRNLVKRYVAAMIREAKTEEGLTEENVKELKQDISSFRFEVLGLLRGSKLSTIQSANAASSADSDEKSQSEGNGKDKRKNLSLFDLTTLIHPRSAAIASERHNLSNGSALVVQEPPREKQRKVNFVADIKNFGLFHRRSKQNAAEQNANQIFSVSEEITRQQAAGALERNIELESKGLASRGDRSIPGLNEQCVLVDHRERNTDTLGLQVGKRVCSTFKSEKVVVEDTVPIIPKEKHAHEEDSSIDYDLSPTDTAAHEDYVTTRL
As to the kind of experiment: mouse TRPC4 channel activators, dose response, cell-based, HEK293 TRPC4/mu-opioid, Fluo-4 calcium (AID 434937). In kind it is functional.

The target of test [11] is T4, High affinity choline transporter 1 (Homo sapiens, UniProt Q9GZV3).
T4 sequence (Q9GZV3 whole entry): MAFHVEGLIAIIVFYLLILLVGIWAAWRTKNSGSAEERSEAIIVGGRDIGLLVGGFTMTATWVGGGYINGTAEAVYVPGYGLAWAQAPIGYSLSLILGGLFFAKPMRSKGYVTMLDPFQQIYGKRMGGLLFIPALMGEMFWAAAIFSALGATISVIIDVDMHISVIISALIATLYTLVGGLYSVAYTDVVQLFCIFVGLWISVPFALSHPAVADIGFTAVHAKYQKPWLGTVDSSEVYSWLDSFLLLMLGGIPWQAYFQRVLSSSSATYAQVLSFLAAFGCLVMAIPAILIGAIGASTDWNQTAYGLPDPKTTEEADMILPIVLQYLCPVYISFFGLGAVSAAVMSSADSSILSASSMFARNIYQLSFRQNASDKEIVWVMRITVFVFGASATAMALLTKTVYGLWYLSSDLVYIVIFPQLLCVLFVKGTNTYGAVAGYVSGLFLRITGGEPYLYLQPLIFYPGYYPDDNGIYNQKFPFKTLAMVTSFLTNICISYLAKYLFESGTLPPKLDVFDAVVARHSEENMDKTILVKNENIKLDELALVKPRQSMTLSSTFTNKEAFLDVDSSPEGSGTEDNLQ
Description: CHT inhibitors, dose response, cell-based, 5-point CRC, membrane potential dye (AID 504840). In kind it is functional.

Another test relates to Vero. Description: cells. In kind it is functional. Particulars: Chlorocebus sabaeus.
In test [12] the target is T5, Oxysterols receptor LXR-beta (Homo sapiens, UniProt P55055).
T5 sequence (P55055 whole entry): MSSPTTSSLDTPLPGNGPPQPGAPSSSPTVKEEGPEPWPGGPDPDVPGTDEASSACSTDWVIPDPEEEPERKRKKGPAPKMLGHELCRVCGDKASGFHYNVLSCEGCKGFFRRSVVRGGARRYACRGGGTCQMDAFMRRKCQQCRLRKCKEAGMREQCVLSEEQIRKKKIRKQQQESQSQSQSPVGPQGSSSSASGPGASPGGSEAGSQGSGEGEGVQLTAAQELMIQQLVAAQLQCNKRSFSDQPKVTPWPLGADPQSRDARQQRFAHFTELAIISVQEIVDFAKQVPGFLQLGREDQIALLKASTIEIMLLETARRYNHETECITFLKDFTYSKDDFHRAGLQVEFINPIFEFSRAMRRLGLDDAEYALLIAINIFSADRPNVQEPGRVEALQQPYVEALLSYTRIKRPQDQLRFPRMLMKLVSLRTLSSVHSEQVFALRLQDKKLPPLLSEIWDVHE
The format is functional, cell-based.

In a further test the target is Paired box protein Pax-8 (Homo sapiens, UniProt Q06710). As to the kind of experiment: inhibitors of PAX8-driven TPO luciferase reporter, dose response, RMG-I cells, cherry-pick (AID 687027).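 Further: luciferase reporter driven by Pax8 target thyroperoxidase promoter measured by SteadyGlo luminescence.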 The format is functional, cell-based. In general terms: In a reporter assay the amount or activity of a reporter protein is the signal.
Paired box protein Pax-8, sequence (Q06710 whole entry): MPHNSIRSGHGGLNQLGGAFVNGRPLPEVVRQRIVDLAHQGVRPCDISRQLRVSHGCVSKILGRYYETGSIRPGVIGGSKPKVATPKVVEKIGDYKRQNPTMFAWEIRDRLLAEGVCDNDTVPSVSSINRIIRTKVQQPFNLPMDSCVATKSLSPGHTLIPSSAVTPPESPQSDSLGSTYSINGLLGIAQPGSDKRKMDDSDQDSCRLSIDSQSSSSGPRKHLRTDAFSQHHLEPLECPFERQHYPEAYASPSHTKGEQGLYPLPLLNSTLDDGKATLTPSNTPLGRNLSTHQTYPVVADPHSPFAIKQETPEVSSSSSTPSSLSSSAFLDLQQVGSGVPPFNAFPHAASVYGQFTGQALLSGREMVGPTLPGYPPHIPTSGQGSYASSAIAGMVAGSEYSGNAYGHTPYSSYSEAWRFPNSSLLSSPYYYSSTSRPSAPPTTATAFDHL
Test [13] in a line: NIH:OVCAR-3 ovarian cancer cell cytotoxicity, dose response, PAX8 inhibitor project, plate reader, dry powder samples (AID 743044). The format is functional, cell-based.
Test [14] can be described thus: non-specific cell cytotoxicity, dose response, cytotoxicity control for PAX8 inhibitor project, plate reader, dry powder samples (AID 743021). The format is functional, cell-based.
The target of test [15] is T5, Oxysterols receptor LXR-beta. The format is functional, cell-based. This is another data set of the same source.
The nature of test [16]: cytotoxicity in OVCAR8 ovarian cancer cells, dose response, PAX8 project, cell-based, plate reader, dry powder samples (AID 743197). Particulars: OVCAR-8. The format is functional.
For test [17], the target named is T2, Heat shock factor protein 1. As to the kind of experiment: HSF1 potentiators in luciferase reporter cells, confirmation, cell-based, NIH3T3, luminescence, dose retest (AID 435004).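 Further: stress induced by proteasome inhibitor MG132 added 30 min after compound; luciferase reporter driven by HSF1 response element in NIH3T3 cells; actives raise luminescence as potentiators of the MG132 stress response.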 In kind it is functional.
Test [18] is described as follows: THP-1 cell cytotoxicity, dose response, cytotoxicity control for Vif-APOBEC3G degradation inhibitor project, THP-1 cells (AID 1117359). In kind it is functional. As to conditions: Human immunodeficiency virus 1, THP-1.
A short description of test [19]: inhibitors of firefly luciferase expression or activity, dose response, H4 neuroglioma cells, luminescence (AID 1990). The format is functional, cell-based.
A short description of test [20]: Luminescence Cell-Based Dose Response HTS to Identify Inhibitors of 5'UTR Stem-Loop Driven Prion Protein mRNA Translation in H4 Neuroglioblastoma Cells. [Related pubchem assays: 1827 (Project Summary), 1813 (Primary HTS)]. In kind it is functional.
Test [21] is described as follows: inhibitors of SNCA 5'UTR-driven reporter translation, confirmation, H4 neuroglioma cells, luminescence (AID 1988). In kind it is functional, cell-based.
Test [22] in a line: cytotoxicity in HEK-293T cells, dose response, cytotoxicity control for TCR NF-kB inhibitor project, luminescence, T-cell screen hits (AID 489026).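 Further: cells exposed to compound about 14 hours before the viability readout.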 In kind it is functional, cell-based.

Induced myeloid leukemia cell differentiation protein Mcl-1, sequence (Q07820 whole entry): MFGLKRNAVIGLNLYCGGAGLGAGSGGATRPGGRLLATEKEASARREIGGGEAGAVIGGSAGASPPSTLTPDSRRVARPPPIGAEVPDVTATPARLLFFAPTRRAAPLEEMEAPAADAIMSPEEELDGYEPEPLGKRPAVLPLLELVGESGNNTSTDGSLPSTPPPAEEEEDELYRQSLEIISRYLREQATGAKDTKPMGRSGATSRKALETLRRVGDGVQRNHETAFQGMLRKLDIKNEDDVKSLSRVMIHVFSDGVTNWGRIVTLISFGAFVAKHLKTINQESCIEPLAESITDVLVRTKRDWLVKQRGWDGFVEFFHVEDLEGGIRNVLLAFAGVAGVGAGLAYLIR

In general, IC50 refers to the concentration needed to halve the response being measured. Regarding `CN(C)c1ccc(NC(=O)c2cccc(C(=O)Nc3ccc(N(C)C)cc3)n2)cc1`, the results for the concentration for half-maximal inhibition (IC50) in test [1] and in test [2] were 3.33 µM (active) and 40 µM (inactive), respectively.
Broadly, the EC50 is the concentration that produces a half-maximal response. A word on the AC50: it is the concentration at which the activity in the assay is half-maximal. For the compound `c1ccc2c(c1)OCC(c1csc3ncnc(N4CCOCC4)c13)O2` (stereo not drawn), in test [3], the IC50 is listed as > 100 µM (not active). In test [4], the EC50 was 171 µM (active). Besides, the AC50 in [5] is 4.1 µM (active); in test [6] it was 11.6 µM (active); in test [7] it was 21.4 µM (active); in test [8], 4.95 µM (active).
Consider `Cc1cccc(C(=O)NNC(=S)NC(=O)c2ccccc2)c1`, for which the CC50 in test [9] is 24 µM (active); in the test on Vero, > 25 µM (active). Further, the concentration giving a half-maximal response (EC50) in test [10] was 2.11 µM (active). The half-inhibitory concentration (IC50) in [11] is 7.59 µM (active); in test [2], > 122 µM (inactive).
Turning to `Nc1cccc2c1C(=O)N(CCOc1ccccc1F)C2=O`, the EC50 (in test [12]; in the test “cells”) was > 67.6 µM (inactive) each time.
Turning to `OCCNc1ncnc2c1c(-c1ccccc1)c(-c1ccccc1)n2Cc1ccco1`, the IC50 in [3] is > 100 µM (not active).
In the case of `Cc1ccc(NC2=Nc3ccccc3CS2)cc1`, in “cells”, the EC50 was > 67.5 µM (inactive).
Consider `CC(C)C(OC(=O)c1cccs1)C(=O)NCc1ccco1` (stereo not drawn), for which the concentration for half-maximal inhibition (IC50) in [3] is listed as > 100 µM (not active).
On to `C[C@H](CO)N1C[C@H](C)[C@H](CN(C)S(=O)(=O)c2ccc(Cl)cc2)OCCCC[C@H](C)Oc2ccc(NC(=O)Nc3ccc(C(F)(F)F)cc3)cc2C1=O`, for which the figures for the AC50 (at Paired box protein Pax-8; in test [13]; in test [14]) were 4.52 µM (active), 60 µM (active) and 34.6 µM (active), respectively.
Consider `CC(C)C[C@H](NC(=O)OCC1c2ccccc2-c2ccccc21)C(=O)O`, for which the EC50 in test [15] is > 67.5 µM (inactive).
As to `Cc1ccc(N=C2Nc3ccccc3CS2)cc1`, in test [12], the EC50 was > 67.5 µM (inactive).
For `C[C@@H]1CN([C@@H](C)CO)C(=O)c2cc(NC(=O)Nc3ccc(F)cc3)ccc2O[C@@H](C)CCCCO[C@H]1CN(C)Cc1ccc(C(F)(F)F)cc1`, the half-maximal activity concentration (AC50) at Paired box protein Pax-8 was 6.74 µM (active); in test [13] it was 16.3 µM (active); in test [14], 1.84 µM (active); in test [16], 51.7 µM (active).
Consider `S=C(N/N=C/c1cccs1)NC1CC2CCC1C2` (stereo not drawn), for which the EC50 in test [17] is > 260 µM (inactive). Besides, in test [2], the IC50 was > 122 µM (inactive). Besides, the CC50 in test [18] is > 40 µM (active).
As for `Cc1c(-c2ccccn2)c(=O)[nH]n1-c1ccc(F)cc1`, the EC50 (in test [12]; in “cells”) was > 67.5 µM (inactive) each time.
`COc1ccc(/C=c2/sc3n(c2=O)C(c2ccccc2OC)C2=C(N=3)c3ccccc3CC2)cc1O` (stereo not drawn): the EC50 in [19] is 0.112 µM (active); in test [20], 13.9 µM (active); in test [21], 0.403 µM (active). The IC50 in test [22] is > 80 µM (inactive). Further, the AC50 at Paired box protein Pax-8 is 2.28 µM (active); in [14], 52 µM (active).
